We go through four compounds from ChEMBL document CHEMBL6127062, “Targeted degradation of METTL3 against acute myeloid leukemia and gastric cancer” (Eur J Med Chem, 2024).

Series [1] addresses T1, Protein cereblon/N(6)-adenosine-methyltransferase catalytic subunit METTL3 (Homo sapiens) (UniProt Q96SW2+Q86U44). As to the kind of experiment: PROTAC activity at CRBN/METTL3 in human MOLM-13 cells assessed as induction of METTL3 degradation at 1 uM by Western blot analysis relative to control. The series is classed as cell-based.
For series [2], the target named is T1, Protein cereblon/N(6)-adenosine-methyltransferase catalytic subunit METTL3 (Homo sapiens). Nature of the series: PROTAC activity at CRBN/METTL3 in human MOLM-13 cells assessed as induction of METTL3 degradation at 10 uM by Western blot analysis relative to control. The series is classed as cell-based. Background: Immunoblotting shows a protein as a band on a membrane.

For series [3], the target named is T2, von Hippel-Lindau disease tumor suppressor/N(6)-adenosine-methyltransferase catalytic subunit METTL3 (Homo sapiens, UniProt P40337+Q86U44). As to the kind of experiment: PROTAC activity at VHL/METTL3 in human MOLM-13 cells assessed as induction of METTL3 degradation at 1 uM by Western blot analysis relative to control. The series is classed as cell-based.
Target sequence in this assay (Q86U44 2-580 partner limits assumed): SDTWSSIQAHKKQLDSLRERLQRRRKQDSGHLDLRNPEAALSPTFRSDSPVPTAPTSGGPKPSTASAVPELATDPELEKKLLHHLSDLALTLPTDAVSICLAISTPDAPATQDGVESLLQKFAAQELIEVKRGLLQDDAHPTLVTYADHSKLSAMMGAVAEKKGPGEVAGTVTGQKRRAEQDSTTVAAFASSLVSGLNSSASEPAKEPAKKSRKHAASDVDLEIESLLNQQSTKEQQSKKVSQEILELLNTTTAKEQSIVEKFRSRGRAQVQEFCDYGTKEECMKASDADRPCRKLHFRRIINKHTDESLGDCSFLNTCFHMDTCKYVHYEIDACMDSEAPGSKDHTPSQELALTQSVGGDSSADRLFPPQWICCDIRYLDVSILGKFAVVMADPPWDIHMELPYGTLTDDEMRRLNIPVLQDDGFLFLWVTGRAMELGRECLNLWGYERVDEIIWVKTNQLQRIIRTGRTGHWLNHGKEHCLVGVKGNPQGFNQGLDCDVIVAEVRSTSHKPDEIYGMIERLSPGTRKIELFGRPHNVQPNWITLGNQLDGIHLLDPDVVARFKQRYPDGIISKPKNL
Target sequence in this assay (P40337 whole entry): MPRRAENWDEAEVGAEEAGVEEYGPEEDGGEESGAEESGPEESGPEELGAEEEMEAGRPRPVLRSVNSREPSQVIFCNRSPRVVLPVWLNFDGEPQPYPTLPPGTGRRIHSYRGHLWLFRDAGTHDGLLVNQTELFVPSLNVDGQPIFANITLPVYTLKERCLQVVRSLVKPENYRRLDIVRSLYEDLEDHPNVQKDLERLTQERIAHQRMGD
Series [4] has as its target T2, von Hippel-Lindau disease tumor suppressor/N(6)-adenosine-methyltransferase catalytic subunit METTL3. Nature of the series: PROTAC activity at VHL/METTL3 in human MOLM-13 cells assessed as induction of METTL3 degradation at 10 uM by Western blot analysis relative to control. The series is classed as cell-based.
Target sequence in this assay (Q86U44 2-580 partner limits assumed): as the sequence (Q86U44 2-580 partner limits assumed) above
Target sequence in this assay (P40337 whole entry): as the sequence (P40337 whole entry) above
Series [5] concerns the target METTL3/METTL14 (Homo sapiens, UniProt Q86U44). Nature of the series: Inhibition of METTL3/METTL14 (unknown origin) using Oligo ssRNA as substrate incubated for 20 min by Hotspot RNA methyltransferase assay. The series is classed as protein-complex assay.
Series [6] has as its target T2, von Hippel-Lindau disease tumor suppressor/N(6)-adenosine-methyltransferase catalytic subunit METTL3. Nature of the series: PROTAC activity at VHL/METTL3 in human MOLM-13 cells assessed as induction of METTL3 degradation incubated for 24 hrs by Western blot analysis. The series is classed as cell-based.
The target is the same in series [7]. Nature of the series: PROTAC activity at VHL/METTL3 in human MOLM-13 cells assessed as induction of METTL3 degradation at 1 uM incubated for 4 hrs by Western blot analysis relative to control. The series is classed as cell-based.
Target sequence in this assay (Q86U44 2-580 partner limits assumed): as the sequence (Q86U44 2-580 partner limits assumed) above
Target sequence in this assay (P40337 whole entry): as the sequence (P40337 whole entry) above
Series [8] has the same target. As to the kind of experiment: PROTAC activity at VHL/METTL3 in human MOLM-13 cells assessed as induction of METTL3 degradation at 1 uM incubated for 24 hrs by Western blot analysis relative to control. The series is classed as cell-based.
Target sequence in this assay (Q86U44 2-580 partner limits assumed): as the sequence (Q86U44 2-580 partner limits assumed) above
Target sequence in this assay (P40337 whole entry): as the sequence (P40337 whole entry) above
The target is the same in series [9]. Nature of the series: PROTAC activity at VHL/METTL3 in human MOLM-13 cells assessed as induction of METTL3 degradation incubated for 4 to 24 hrs by Western blot analysis relative to control. The series is classed as cell-based. Particulars: time 4-24 hrs.
Target sequence in this assay (Q86U44 2-580 partner limits assumed): as the sequence (Q86U44 2-580 partner limits assumed) above
Target sequence in this assay (P40337 whole entry): as the sequence (P40337 whole entry) above
For series [10] the target is unchanged. As to the kind of experiment: PROTAC activity at VHL/METTL3 in human MOLM-13 cells assessed as induction of METTL3 degradation at 1 uM by Western blot analysis. The series is classed as cell-based. The note with it: time 4-24 hrs, TDE = time-dependent effect.
Target sequence in this assay (Q86U44 2-580 partner limits assumed): as the sequence (Q86U44 2-580 partner limits assumed) above
Target sequence in this assay (P40337 whole entry): as the sequence (P40337 whole entry) above
Series [11] deals with N6-adenosine-methyltransferase catalytic subunit (Homo sapiens) (UniProt Q86U44). As to the kind of experiment: Induction of thermal stabilization of endogenous METTL3 in human MOLM-13 cells incubated for 1 hrs by cellular thermal shift assay. The series is classed as cell-based.
N6-adenosine-methyltransferase catalytic subunit (Homo sapiens), sequence (Q86U44 whole entry): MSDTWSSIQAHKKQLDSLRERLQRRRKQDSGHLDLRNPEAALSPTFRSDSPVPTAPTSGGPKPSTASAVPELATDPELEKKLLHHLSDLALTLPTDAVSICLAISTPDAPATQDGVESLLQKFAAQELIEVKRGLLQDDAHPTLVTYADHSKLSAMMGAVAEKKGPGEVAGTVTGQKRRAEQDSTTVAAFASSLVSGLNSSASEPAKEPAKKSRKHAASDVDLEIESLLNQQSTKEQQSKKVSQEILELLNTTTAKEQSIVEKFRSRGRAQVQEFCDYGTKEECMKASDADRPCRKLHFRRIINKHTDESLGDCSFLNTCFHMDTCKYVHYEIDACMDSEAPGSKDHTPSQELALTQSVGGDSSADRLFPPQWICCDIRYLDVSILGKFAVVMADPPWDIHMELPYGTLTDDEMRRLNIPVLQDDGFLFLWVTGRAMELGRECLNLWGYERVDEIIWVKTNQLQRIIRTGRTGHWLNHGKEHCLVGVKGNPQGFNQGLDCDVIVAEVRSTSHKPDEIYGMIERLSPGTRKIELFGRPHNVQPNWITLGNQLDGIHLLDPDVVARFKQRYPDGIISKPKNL
For series [12] the target is unchanged. As to the kind of experiment: Induction of thermal stabilization of METTL3 in human MOLM-13 cells at 52.4 to 54.8 degreeC incubated for 1 hrs by cellular thermal shift assay. The series is classed as cell-based.
Series [13] has as its system HeLa. As to the kind of experiment: Binding affinity to METTL3/GFP-fused BRD4 (unknown origin) expressed in HeLa cells presence of MZ1 by Western blot analysis. The series is classed as cell-based. Particulars: Homo sapiens.
In series [14] the target is T2, von Hippel-Lindau disease tumor suppressor/N(6)-adenosine-methyltransferase catalytic subunit METTL3. Nature of the series: PROTAC activity at VHL/METTL3 (unknown origin) expressed in HeLa cells assessed as BRD4-eGFP_mCherry level incubated for 4 hrs in presence of MZ1 by flow cytometry analysis. The series is classed as cell-based.
For series [15] the target is unchanged. As to the kind of experiment: PROTAC activity at VHL/METTL3 (unknown origin) expressed in HeLa cells incubated for 4 hrs presence of MZ1 by flow cytometry analysis. The series is classed as cell-based.
The target is the same in series [16]. Nature of the series: PROTAC activity at VHL/METTL3 in human MOLM-13 cells assessed as induction of METTL3 degradation at 10 uM preincubated with UZH2 for 2 hrs followed by compound addition and measured after 24 hrs by Western blot analysis. The series is classed as cell-based.
Series [17] has the same target. As to the kind of experiment: PROTAC activity at VHL/METTL3 in human MOLM-13 cells assessed as induction of METTL3 degradation at 10 uM preincubated with VH032 for 2 hrs followed by compound addition and measured after 24 hrs by Western blot analysis. The series is classed as cell-based.
Series [18] shares this target. As to the kind of experiment: Binding affinity to N-Luc tagged METTL3 (unknown origin)/Halo-tagged VHL (unknown origin) expressed in HEK293T cells assessed as ternary complex formation by measuring increase in BRET ratio at 1 uM preincubated with epoxomicin for 2 hrs followed by compound addition and measured after 4.5 hrs by NanoBRET assay. The series is classed as cell-based.

Series [19] has the same target. As to the kind of experiment: Binding affinity to N-Luc tagged METTL3 (unknown origin)/Halo-tagged VHL (unknown origin) expressed in HEK293T cells assessed as ternary complex formation by measuring decrease in BRET ratio at 30 uM preincubated with epoxomicin for 2 hrs followed by compound addition and measured after 4.5 hrs by NanoBRET assay. The series is classed as cell-based. (In BRET a luciferase serves as donor, and the signal depends on an acceptor being close.)

For series [20] the target is unchanged. Nature of the series: Binding affinity to N-Luc tagged METTL3 (unknown origin)/Halo-tagged VHL (unknown origin) HA-Ub expressed in HEK293T cells assessed as ternary complex formation by measuring increase ubiquitination level at 1 uM preincubated with epoxomicin for 2.5 hrs followed by compound addition and measured after 6 hrs by NanoBRET assay. The series is classed as cell-based.

Series [21] has the same target. As to the kind of experiment: PROTAC activity at VHL/METTL3 in HEK293T cells assessed as induction of METTL3 degradation at 1 uM preincubated with MLN4924 for 2.5 hrs followed by compound addition and measured after 6 hrs by Western blot analysis. The series is classed as cell-based.
Series [22] has the same target. As to the kind of experiment: PROTAC activity at VHL/METTL3 in HEK293T cells assessed as induction of METTL3 degradation at 1 uM preincubated with epoxomicin for 2.5 hrs followed by compound addition and measured after 6 hrs by Western blot analysis. The series is classed as cell-based.
The target is the same in series [23]. Nature of the series: PROTAC activity at VHL/METTL3 in HEK293T cells assessed as induction of METTL3 degradation at 1 uM preincubated with MG132 for 2.5 hrs followed by compound addition and measured after 6 hrs by Western blot analysis. The series is classed as cell-based.
Series [24] has the same target. Nature of the series: PROTAC activity at VHL/METTL3 in HEK293T cells assessed as induction of METTL3 degradation at 1 uM preincubated with 3MA autophagy inhibitor for 2.5 hrs followed by compound addition and measured after 6 hrs by Western blot analysis. The series is classed as cell-based.
Series [25] deals with MOLM-13. As to the kind of experiment: Antiproliferative activity against human MOLM-13 cells assessed as inhibition of cell proliferation measured after 72 hrs by Celltiter Glo luminescent cell viability assay. The series is classed as functional, cell-based. Particulars: MOLM-13, 72 h. (Cellular ATP, detected with luciferase, serves as a proxy for viable cell number.)
The test system of series [26] is MOLM-14. Nature of the series: Antiproliferative activity against human MOLM-14 cells assessed as cell growth inhibition after 72 hrs by Celltiter Glo luminescent cell viability assay. The series is classed as functional, cell-based.
Series [27] has as its system HL-60. Nature of the series: Antiproliferative activity against human HL-60 cells assessed as cell growth inhibition after 72 hrs by Celltiter Glo luminescent cell viability assay. The series is classed as functional, cell-based.
The subject of series [28] is MOLM-13. Nature of the series: Downregulation of C-Myc protein level expression in human MOLM-13 cells incubated for 24 hrs by Western blot analysis. The series is classed as functional, cell-based.
In series [29] the test system is MOLM-13. As to the kind of experiment: Induction of apoptosis in human MOLM-13 cells at 5 uM incubated for 48 hrs by Annexin V/PI staining based flow cytometry analysis. The series is classed as functional, cell-based.
For series [30], the system named is GES1. Nature of the series: Anticancer activity against human GES1 cells assessed as inhibition of cell growth incubated for 72 hrs by cell viability assay. The series is classed as functional, cell-based.
Series [31] relates to AGS. Nature of the series: Anticancer activity against human AGS cells assessed as inhibition of cell growth incubated for 72 hrs by cell viability assay. The series is classed as functional, cell-based.
Series [32] in a line: (§1) Anticancer activity against human SNU484 cells assessed as inhibition of cell growth incubated for 72 hrs by cell viability assay. The series is classed as functional, cell-based. The note with it: SNU-484, 72 h.
Series [33] has as its system GES1. Nature of the series: Cytotoxicity against human GES1 cells assessed as reduction in cell viability incubated for 24 hrs. Particulars: ges1, 24 h. The series is classed as toxicity, cell-based.
Series [34] addresses T2, von Hippel-Lindau disease tumor suppressor/N(6)-adenosine-methyltransferase catalytic subunit METTL3. Nature of the series: PROTAC activity at VHL/METTL3 expressed in human AGS cells assessed as reduction of cytoplasmic METTL3 protein level at 1 uM incubated for 24 hrs by Western blot analysis. The series is classed as cell-based.
For series [35] the target is unchanged. As to the kind of experiment: PROTAC activity at VHL/METTL3 expressed in human SNU-484 cells assessed as reduction of cytoplasmic METTL3 protein level at 1 uM incubated for 24 hrs by Western blot analysis. The series is classed as cell-based.
For series [36] the target is unchanged. Nature of the series: PROTAC activity at VHL/METTL3 expressed in human AGS cells assessed as reduction of METTL3 protein level in nucleus fraction at 1 uM incubated for 24 hrs by Western blot analysis. The series is classed as cell-based.
The target is the same in series [37]. As to the kind of experiment: PROTAC activity at VHL/METTL3 expressed in human SNU-484 cells assessed as reduction of METTL3 protein level in nucleus fraction at 1 uM incubated for 24 hrs by Western blot analysis. The series is classed as cell-based.
Series [38] concerns Gastric cancer organoid. Nature of the series: Anti-proliferative activity against patient derived GA352T organoids assessed as suppression of tumor growth incubated for 5 days by Celltiter-glo viability assay. The series is classed as functional, tissue-based. Particulars: Homo sapiens; Neoplasm; time 5.0 day.
The subject of series [39] is Gastric cancer organoid. As to the kind of experiment: Anti-proliferative activity against patient derived GA215T organoids assessed as suppression of tumor growth incubated for 5 days by Celltiter-glo viability assay. Particulars: Homo sapiens; Neoplasm; time 5.0 day. The series is classed as functional, tissue-based.
For series [40], the system named is SNU-484. The series is described as §1. The series is classed as functional, cell-based.

Activity calls are given as the source filed them. The calls are words filed in the database; no cut-off is given here.

T1 sequence (Q86U44 whole entry, looked up): as the sequence (Q86U44 whole entry) above
T1 sequence (Q96SW2 whole entry, looked up): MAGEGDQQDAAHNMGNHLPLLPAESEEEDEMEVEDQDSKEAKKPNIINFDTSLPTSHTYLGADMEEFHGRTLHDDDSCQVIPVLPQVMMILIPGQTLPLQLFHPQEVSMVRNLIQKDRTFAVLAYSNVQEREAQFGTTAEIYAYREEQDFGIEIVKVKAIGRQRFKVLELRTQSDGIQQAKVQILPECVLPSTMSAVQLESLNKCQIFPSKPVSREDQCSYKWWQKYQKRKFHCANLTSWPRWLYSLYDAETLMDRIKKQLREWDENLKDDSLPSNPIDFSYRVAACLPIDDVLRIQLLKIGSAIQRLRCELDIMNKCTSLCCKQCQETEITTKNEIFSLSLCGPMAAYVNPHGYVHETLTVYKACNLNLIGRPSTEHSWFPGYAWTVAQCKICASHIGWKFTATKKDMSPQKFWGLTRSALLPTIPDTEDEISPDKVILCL
METTL3/METTL14, sequence (Q86U44 whole entry): as the sequence (Q86U44 whole entry) above
METTL3/METTL14, sequence (Q9HCE5 whole entry, further chain): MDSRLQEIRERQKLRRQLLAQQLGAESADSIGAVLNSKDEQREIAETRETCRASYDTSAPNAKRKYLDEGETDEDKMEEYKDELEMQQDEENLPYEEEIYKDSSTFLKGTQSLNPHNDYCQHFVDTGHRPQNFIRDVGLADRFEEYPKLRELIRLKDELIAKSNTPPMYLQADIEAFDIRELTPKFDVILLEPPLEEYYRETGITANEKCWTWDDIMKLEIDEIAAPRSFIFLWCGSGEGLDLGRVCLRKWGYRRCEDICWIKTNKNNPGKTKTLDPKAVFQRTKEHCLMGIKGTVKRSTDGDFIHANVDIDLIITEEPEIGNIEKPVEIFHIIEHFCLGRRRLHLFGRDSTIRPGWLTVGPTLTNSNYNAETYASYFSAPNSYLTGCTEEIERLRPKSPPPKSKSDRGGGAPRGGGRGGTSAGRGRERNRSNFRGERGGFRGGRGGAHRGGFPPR

For `CC1(C)CCN(Cc2cc(F)c(N3CC(=O)NC4(CCN(c5cc(NCCCCCC(=O)N6CCN(c7ccc8c(c7)C(=O)N(C7CCC(=O)NC7=O)C8=O)CC6)ncn5)CC4)C3)cc2F)CC1` (stereo unspecified), the figures for the Activity in [1] and in series [2] were 32% and 35%, respectively.
With `CC1(C)CCN(Cc2cc(F)c(N3CC(=O)NC4(CCN(c5cc(NCCCCCCCC(=O)N6CCN(c7ccc8c(c7)C(=O)N(C7CCC(=O)NC7=O)C8=O)CC6)ncn5)CC4)C3)cc2F)CC1` (stereo unspecified), the Activity stood at 33% in series [1] and 29% in series [2].
For `Cc1ncsc1-c1ccc(CNC(=O)[C@@H]2C[C@@H](O)CN2C(=O)[C@@H](NC(=O)CCCCCCCNc2cc(N3CCC4(CC3)CN(c3cc(F)c(CN5CCC(C)(C)CC5)cc3F)CC(=O)N4)ncn2)C(C)(C)C)cc1`, the Activity in series [3] is 84%; in series [4], 50%; in series [6], “Dose-Dependent Effect”; in series [7], > 50%; in [8], 90%; in series [9] it was “Dose-Dependent Effect”. In addition, the Activity entry in [10] was “Tde”; in series [11], “Dose-Dependent Effect”; in series [28], “Dose-Dependent Effect”; in series [33] it was “Toxic”. In addition, the half-inhibitory concentration (IC50) in [5] was 0.341 µM; in series [25] it was 1.04 µM; in [30] (GES1, 72 h), > 50 µM; in series [31] it was 1.48 µM; in series [32], 3 µM. Besides, in series [6], the 50% degradation concentration (DC50) came out at 0.22 µM. Besides, the outcome in series [12], in series [13], in series [15], in [17], in series [18] and in [20] was Active. In addition, the result in [24], in series [26], in series [27], in [29], in series [34] and in series [35] was Active. For the same compound, the outcome in series [36], in [37], in series [38] and in series [39] was Active. Moreover, the result in series [14], in series [16], in series [19], in series [21], in series [22] and in [23] was inactive.
Turning to `O=C(NCc1cn2cc(CNCC3CCCCC3)ccc2n1)c1cc(=O)n2ccccc2n1`, the half-inhibitory concentration (IC50) in series [25] amounted to 5.47 µM. The result in series [30], in series [31] and in [40] was inactive.

The term IC50 denotes the concentration that inhibits the measured activity by half. The DC50 is the concentration giving 50% degradation.
